Results on 65 compounds are retold here after patent US10940139B2, “Compounds that interact with the Ras superfamily for the treatment of cancers, inflammatory diseases, rasopathies, and fibrotic disease” (Shy Therapeutics LLC, priority 2017, dated 2021).

Molecules are shown by their SMILES.

KRas G12D/Q61H double mutant, sequence (P01116-2 other isoform, or with tags, fused parts or gaps G12D/Q61H): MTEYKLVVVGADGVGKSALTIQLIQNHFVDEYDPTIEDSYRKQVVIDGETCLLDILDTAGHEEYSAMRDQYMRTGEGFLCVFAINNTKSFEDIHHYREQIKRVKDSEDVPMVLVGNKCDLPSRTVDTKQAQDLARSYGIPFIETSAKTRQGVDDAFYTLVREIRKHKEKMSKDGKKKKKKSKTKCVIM

The target of the first experiment is KRas G12D/Q61H double mutant (Homo sapiens (Human), UniProt P01116, G12D/Q61H). The experiment in a line: Ras GTP binding domain inhibition assay (labeled GTP). To be noted: 20 μM compound; KRas G12D/Q61H double mutant; read-out: % Inhibition at 20 μM of K-Ras mutant and wild-type protein, KRas G12D Q61H. An outline of the steps:
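Inhibition of labeled GTP binding is measured on immobilized His-KRas protein in Tris buffer pH 7.5 with 1 mM MgCl2 and 1 mM DTT.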
Take `Cc1cc(C(=O)COC(=O)c2ccccc2[S+](C)[O-])c(C)n1CCC1=CCCCC1` (centres unmarked): the inhibition at 20 µM lay in the range of 1 to 25%. For the compound `CCCc1cc(=O)oc2cc(OCc3cc(C(=O)OC)c(C)o3)ccc12`, the inhibition at 20 µM lay within 25 to 50%. For `CCc1ccc(C(=O)c2cc3ccccc3o2)s1`, the inhibition at 20 µM lay within 25 to 50%. On the same count and under the same terms, to `CC(C)(C)NS(=O)(=O)c1ccccc1CNC(=O)CCC1CCCCC1` belongs 25 to 50%; to `CCCCN1CC(c2nc3ccccc3n2CCCCOc2c(C)cccc2C)CC1=O` (centres unmarked), 1 to 25%.

Consider `CCCCOCCN(C(=O)c1ccn(-c2ccccc2)n1)c1ccccc1Br`, for which the inhibition at 20 µM lay within 25 to 50%. On the same count and under the same terms, to `CC1CN(C(=O)CSc2nnc(Cc3cccc4ccccc34)n2C2CCCCC2)CC(C)O1` (centres unmarked) belongs 25 to 50%; to `CCOC(COCCNC(=O)c1ccsc1NC(=O)c1ccc(C(C)C)cc1)OCC`, 1 to 25%. `OCCCCCSc1n[nH]c(-c2ccccn2)n1`: the inhibition at 20 µM is 51 to 75%. Still for that read-out and setting: under `CN(C)S(=O)(=O)c1cccc(CSCCOc2cccc(Cl)c2)c1` stands 25 to 50%; under `O=c1c(Cl)cc(C(F)(F)F)cn1Cc1csc(COc2ccc(Cl)cc2)n1`, 1 to 25%; under `CCCn1c(-c2cccc(C)c2)nnc1S(=O)(=O)Cc1csc(-c2cccc(OC)c2)n1`, 51 to 75%. On the same count and under the same terms, under `COc1ccc(CCNc2nc(-c3cc(C)n(-c4ncn[nH]4)c3C)cs2)cc1OC` stands 25 to 50%; under `c1ccc(Cc2nc(CN(CCn3cccn3)Cc3csc(Cc4ccccc4)n3)cs2)cc1`, 1 to 25%. The same measure, in the same setting: under `CCSC1CCCCC1NCc1nc(-c2ccc(OC(F)F)c(OC)c2)no1` (centres unmarked) stands 25 to 50%.

With `CC(C)CC(NC(=O)OC(C)(C)C)c1noc(Cc2c[nH]c3ccccc23)n1` (centres unmarked), the inhibition at 20 µM was 1 to 25%.

As for `C=CCN(Cc1ccc(Cl)s1)C(=O)COC(=O)c1cc(OC)ccc1O`, the inhibition at 20 µM was 25 to 50%. `COc1ccc(OC)c(CCC(=O)N2CCN(c3ncc(C(F)(F)F)cc3Cl)CC2)c1`: the inhibition at 20 µM lay in the range of 25 to 50%. The same measure, in the same setting: to `O=S(=O)(Cc1ccc(OC(F)(F)F)cc1)Nc1cccnc1-n1cccn1` belongs 25 to 50%; to `Clc1ccccc1SCCCSc1nnc(N2CCCC2)s1`, 25 to 50%.

Still in this experiment, the particulars now being: 20 μM compound; read-out: % Inhibition at 20 μM KRas G12D Q61H.
As to `CN(Cc1ccc(OCc2ccccn2)cc1)Cc1ccccc1OC(F)(F)F`, the inhibition at 20 µM is 1 to 25%. The same measure, in the same setting: to `O=C(c1cnc(-c2ccccc2)s1)N1CCC(c2ccccc2)CC1` belongs 25 to 50%; to `C=CCn1c(SCc2csc(-c3cccc(OC)c3OC)n2)nc2ccccc21`, 1 to 25%. On to `Cc1cccc(CN(Cc2ccccn2)Cc2ncc(C(C)(C)C)o2)c1`, for which the inhibition at 20 µM lay in the range of 1 to 25%.

As to `Nc1nc(O)c2scc(C(=O)N3CCN(c4ccncc4)CC3)c2n1`, the inhibition at 20 µM lay within 25 to 50%. As to `O=C(c1cc(-c2ccccc2)nn1-c1ccccc1)N(Cc1nnc(-c2ccccc2Cl)o1)C1CC1`, the inhibition at 20 µM was in the range of 25 to 50%. For the compound `O=C(Nc1nc(-c2ccccn2)cs1)c1ccc(=O)n(Cc2ccccc2)n1`, the inhibition at 20 µM fell in the range of 25 to 50%. Still for that read-out and setting: under `CCN(CC)S(=O)(=O)c1ccc(NCCOC)c(C(=O)NCCC(C)C)c1` stands 1 to 25%; under `Cc1cc(C)n2nc(CC(=O)N(Cc3ccc(F)cc3)C3CC3)nc2n1`, 1 to 25%; under `Cc1nc(-c2ccccn2)sc1C(=O)NCCNc1cnccn1`, 25 to 50%.

`CC(c1ccc(Cl)cc1Cl)N(C)Cc1nnc(-c2ccccc2)o1` (centres unmarked): the inhibition at 20 µM lay in the range of 25 to 50%. Same read-out and setting: to `O=c1nc(-c2ccccn2)[nH]c2scc(-c3ccco3)c12` belongs 25 to 50%; to `CCc1c(C)sc2[nH]c(-c3ccccn3)nc(=O)c12`, 25 to 50%. Still for that read-out and setting: under `CC1=C(c2ccccc2)C2C(=O)NC(c3cnccn3)=NC2S1` (centres unmarked) stands 25 to 50%; under `O=C(Nc1nnc(-c2ccccn2)[nH]1)C1CC=CCC1` (centres unmarked), 25 to 50%. Still for that read-out and setting: to `Cc1cccc(OCCNC(=O)c2cc(S(=O)(=O)N3CCOCC3)ccc2N2CCOCC2)c1` belongs 1 to 25%; to `CCOC(=O)NC1CCN(C(=O)c2csc3c(O)nc(-c4ccccn4)nc23)CC1` [drawing 2685], 51 to 75%.

As for `CSc1nnc(CN(Cc2ccccc2)Cc2ccccc2)s1`, the inhibition at 20 µM fell in the range of 25 to 50%. Regarding `OCCCSCCNc1nc(-c2ccccn2)nc2c1CCC2`, the inhibition at 20 µM lay within 1 to 25%. As to `CCCOc1ccc(OCCOC(=O)c2cccnc2SCCOc2ccc(OCCC)cc2)cc1`, the inhibition at 20 µM is 25 to 50%. Same read-out and setting: to `O=C(c1ccc(COc2ccccc2F)o1)N1CCOc2ccccc21` belongs 1 to 25%; to `Nc1nc(-c2ccccn2)nn1C(=O)Cc1csc(-c2ccccc2)n1`, 25 to 50%; to `Nc1nc(O)c2scc(C(=O)N(CCO)CCOCCO)c2n1` [drawing 2669], 1 to 25%. In the case of `Cc1cc(O)nc(-c2ccccn2)n1`, the inhibition at 20 µM fell in the range of 25 to 50%. Still for that read-out and setting: to `CCOC(=O)c1sc(N(C2CC2)S(=O)(=O)c2cc(F)ccc2C)nc1C` belongs 25 to 50%; to `CCCCCCNC(=O)c1cc(S(=O)(=O)N(C)C)ccc1N1CCOCC1`, 1 to 25%. On the same count and under the same terms, under `OC(CNc1nc(-c2ccccn2)nc2c1CCC2)COCC1CC1` (centres unmarked) stands 25 to 50%; under `O=C(Nc1nnc(-c2ccccn2)[nH]1)c1ccncc1`, 25 to 50%; under `CC1(C)NC(=O)N(CC(=O)Nc2nc(-c3ccccn3)cs2)C1=O`, 1 to 25%. For `O=C(CCNc1ncccn1)Nc1nnc(-c2ccccn2)[nH]1`, the inhibition at 20 µM is 25 to 50%. Still for that read-out and setting: to `O=C(c1csc2c(O)nc(-c3ccccn3)nc12)N1CCN(c2ccc(Cl)cc2)CC1` belongs 25 to 50%; to `CCCCN(C(=O)c1nn(-c2ccccc2)nc1C)c1ccccc1`, 25 to 50%; to `Cc1cccc(C)c1OCCn1c(CN2CCCCC2)nc2ccccc21`, 25 to 50%. On the same count and under the same terms, under `CC(c1nc(N)nc(N(C)C)n1)N1CCN(c2cccc(C(F)(F)F)c2)CC1` (centres unmarked) stands 1 to 25%. Still for that read-out and setting: to `Cc1cc(C)n(CCCNC(=O)c2cc(S(=O)(=O)N3CCCCC3)ccc2N2CCOCC2)n1` belongs 25 to 50%.

The same experiment, now with this note: 20 μM; read-out: KRas G12D Q61H % Inh.
For `CCc1cc(NNC(=O)c2ccc(C#N)cc2)nc(-c2ccccn2)n1` [drawing 2605], the inhibition at 20 µM fell in the range of 51 to 75%. On the same count and under the same terms, to `O=C(COc1ccc(F)cc1F)Nc1nnc(-c2ccccn2)[nH]1` [drawing 2458] belongs 51 to 75%; to `CC(OCc1ccccc1)C(=O)Nc1nnc(-c2ccccn2)[nH]1` (centres unmarked) [drawing 2516], 51 to 75%. The same measure, in the same setting: to `O=C(Cn1cnc2ccccc2c1=O)Nc1nc(-c2ccccn2)cs1` [drawing 2574] belongs 25 to 50%; to `O=C(Nc1nnc(-c2ccccn2)[nH]1)c1ccc(=O)[nH]n1` [drawing 2562], 51 to 75%. Same read-out and setting: under `COc1ccccc1C1CC1C(=O)Nc1nnc(-c2ccccn2)[nH]1` (centres unmarked) [drawing 2535] stands 51 to 75%; under `O=C(Nc1nc(-c2ccccn2)cs1)c1ccc(F)cc1` [drawing 2579], 51 to 75%; under `Cc1ccc(CC(=O)Nc2nnc(-c3ccccn3)[nH]2)cn1` [drawing 2506], 51 to 75%. In the case of `O=c1nc(-c2ccccn2)[nH]c2sc(-c3ccccc3)cc12` [drawing 2588], the inhibition at 20 µM fell in the range of 51 to 75%. The same measure, in the same setting: to `Cc1c(C(=O)N(C)C)sc2[nH]c(-c3ccccn3)nc(=O)c12` [drawing 2590] belongs 25 to 50%.
